Test results as given in ChEMBL document CHEMBL1201862, “PubChem BioAssay data set” (2004).
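Exposure lasted 48 hours, with cells grown in 96-well plates and compounds tested at five concentrations. GI50 marks 50% less growth.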 Activity calls are given as the source filed them. Rule as the data show it: active = GI50 up to about 1.1 µM and inactive = higher.

Key:
Assay in all cases: inhibition of tumour cell growth, NCI panel, 48 h
786-0 = tested on: 786-0
A498 = tested on: A498
A549 = tested on: A549
ACHN = tested on: ACHN
BT-549 = tested on: BT-549
CAKI-1 = tested on: CAKI-1
CCRF-CEM = tested on: CCRF-CEM
COLO 205 = tested on: COLO 205
EKVX = tested on: EKVX
HCC 2998 = tested on: HCC 2998
HCT-116 = tested on: HCT-116
HCT-15 = tested on: HCT-15
HL-60 = tested on: HL-60
HOP-62 = tested on: HOP-62
HOP-92 = tested on: HOP-92
HT-29 = tested on: HT-29
Hs-578T = tested on: Hs-578T
IGROV-1 = tested on: IGROV-1
K562 = tested on: K562
KM12 = tested on: KM12
LOX IMVI = tested on: LOX IMVI
M14 = tested on: M14
MCF7 = tested on: MCF7
MDA-MB-231 = tested on: MDA-MB-231
MDA-MB-435 = tested on: MDA-MB-435
MDA-N = tested on: MDA-N
Malme-3M = tested on: Malme-3M
NCI-H226 = tested on: NCI-H226
NCI-H23 = tested on: NCI-H23
NCI-H460 = tested on: NCI-H460
NCI-H522 = tested on: NCI-H522
NCI/ADR-RES = tested on: NCI/ADR-RES
OVCAR-3 = tested on: OVCAR-3
OVCAR-4 = tested on: OVCAR-4
OVCAR-5 = tested on: OVCAR-5
OVCAR-8 = tested on: OVCAR-8
PC-3 = tested on: PC-3
RPMI-8226 = tested on: RPMI-8226
SF-268 = tested on: SF-268
SF-295 = tested on: SF-295
SF-539 = tested on: SF-539
SK-MEL-28 = tested on: SK-MEL-28
SK-MEL-2 = tested on: SK-MEL-2
SK-MEL-5 = tested on: SK-MEL-5
SK-OV-3 = tested on: SK-OV-3
SN12C = tested on: SN12C
SNB-19 = tested on: SNB-19
SR = tested on: SR
SW-620 = tested on: SW-620
TK-10 = tested on: TK-10
U-251 = tested on: U-251
UACC-257 = tested on: UACC-257
UACC-62 = tested on: UACC-62
UO-31 = tested on: UO-31
DU-145 = tested on: DU-145
SNB-75 = tested on: SNB-75
MOLT-4 = tested on: MOLT-4
RXF 393 = tested on: RXF 393

## NC(=O)SCC(=O)Nc1ccc2ncccc2c1
786-0
  GI50: 26.8 µM (inactive)
A498
  GI50: > 100 µM (inactive)
A549
  GI50: > 100 µM (inactive)
ACHN
  GI50: > 100 µM (inactive)
BT-549
  GI50: 74.5 µM (inactive)
CAKI-1
  GI50: > 100 µM (inactive)
CCRF-CEM
  GI50: 29.6 µM (inactive)
COLO 205
  GI50: > 100 µM (inactive)
EKVX
  GI50: > 100 µM (inactive)
HCC 2998
  GI50: > 100 µM (inactive)
HCT-116
  GI50: > 100 µM (inactive)
HCT-15
  GI50: 55.1 µM
HL-60
  GI50: > 100 µM (inactive)
HOP-62
  GI50: > 100 µM (inactive)
HOP-92
  GI50: 35.2 µM (inactive)
HT-29
  GI50: > 100 µM (inactive)
Hs-578T
  GI50: 67.3 µM (inactive)
IGROV-1
  GI50: > 100 µM (inactive)
K562
  GI50: 36.1 µM (inactive)
KM12
  GI50: 45.4 µM (inactive)
LOX IMVI
  GI50: 31.6 µM (inactive)
M14
  GI50: > 100 µM (inactive)
MCF7
  GI50: 46.8 µM (inactive)
MDA-MB-231
  GI50: > 100 µM (inactive)
MDA-MB-435
  GI50: 48.3 µM (inactive)
MDA-N
  GI50: 61.5 µM (inactive)
Malme-3M
  GI50: 56.1 µM (inactive)
NCI-H226
  GI50: > 100 µM (inactive)
NCI-H23
  GI50: > 100 µM (inactive)
NCI-H460
  GI50: 85.3 µM (inactive)
NCI-H522
  GI50: 27.7 µM (inactive)
NCI/ADR-RES
  GI50: > 100 µM (inactive)
OVCAR-3
  GI50: 35.5 µM (inactive)
OVCAR-4
  GI50: > 100 µM (inactive)
OVCAR-5
  GI50: > 100 µM (inactive)
OVCAR-8
  GI50: > 100 µM (inactive)
PC-3
  GI50: 64.9 µM (inactive)
RPMI-8226
  GI50: 23.6 µM (inactive)
SF-268
  GI50: 49.1 µM (inactive)
SF-295
  GI50: 53.2 µM (inactive)
SF-539
  GI50: 28.1 µM (inactive)
SK-MEL-28
  GI50: > 100 µM (inactive)
SK-MEL-2
  GI50: 46.8 µM (inactive)
SK-MEL-5
  GI50: 43.4 µM (inactive)
SK-OV-3
  GI50: > 100 µM (inactive)
SN12C
  GI50: 56 µM (inactive)
SNB-19
  GI50: 40.6 µM (inactive)
SR
  GI50: 49 µM (inactive)
SW-620
  GI50: > 100 µM (inactive)
TK-10
  GI50: 54.7 µM (inactive)
U-251
  GI50: 21.5 µM (inactive)
UACC-257
  GI50: 71.3 µM (inactive)
UACC-62
  GI50: 46.2 µM (inactive)
UO-31
  GI50: > 100 µM (inactive)

## COc1cc(NC(C)CCCN)c2nccc(C)c2c1 (configuration not stated)
786-0
  GI50: 19 µM (inactive)
A549
  GI50: 55.7 µM (inactive)
ACHN
  GI50: 26.6 µM (inactive)
BT-549
  GI50: 15.8 µM (inactive)
CAKI-1
  GI50: 21.2 µM (inactive)
COLO 205
  GI50: 14.3 µM (inactive)
DU-145
  GI50: 48.3 µM (inactive)
EKVX
  GI50: 55.3 µM (inactive)
HCC 2998
  GI50: 19.9 µM (inactive)
HCT-116
  GI50: 15.8 µM (inactive)
HCT-15
  GI50: 21.3 µM
HL-60
  GI50: 2.81 µM (inactive)
HOP-62
  GI50: 17.1 µM (inactive)
HOP-92
  GI50: 24.9 µM (inactive)
HT-29
  GI50: 31.9 µM (inactive)
Hs-578T
  GI50: 26.8 µM (inactive)
IGROV-1
  GI50: 16.5 µM (inactive)
KM12
  GI50: 17.5 µM (inactive)
M14
  GI50: 18.9 µM (inactive)
MCF7
  GI50: 16.2 µM (inactive)
MDA-MB-231
  GI50: > 10 µM (inactive)
MDA-MB-435
  GI50: 16.7 µM (inactive)
MDA-N
  GI50: 18.9 µM (inactive)
Malme-3M
  GI50: 20 µM (inactive)
NCI-H23
  GI50: 38 µM (inactive)
NCI-H460
  GI50: 22.3 µM (inactive)
NCI-H522
  GI50: 17.5 µM (inactive)
NCI/ADR-RES
  GI50: 11.6 µM (inactive)
OVCAR-3
  GI50: 23.1 µM (inactive)
OVCAR-4
  GI50: 21.8 µM (inactive)
OVCAR-5
  GI50: 96.4 µM (inactive)
RPMI-8226
  GI50: 20.9 µM (inactive)
SF-268
  GI50: 24.3 µM (inactive)
SF-295
  GI50: 15.3 µM (inactive)
SF-539
  GI50: 17.5 µM (inactive)
SK-MEL-28
  GI50: 19.5 µM (inactive)
SK-MEL-2
  GI50: 19.2 µM (inactive)
SK-MEL-5
  GI50: 25.7 µM (inactive)
SK-OV-3
  GI50: 28.4 µM (inactive)
SN12C
  GI50: 31.4 µM (inactive)
SNB-19
  GI50: 27 µM (inactive)
SNB-75
  GI50: 14.2 µM (inactive)
SR
  GI50: 19.7 µM (inactive)
TK-10
  GI50: 26.8 µM (inactive)
U-251
  GI50: 19.6 µM (inactive)
UACC-62
  GI50: 19.9 µM (inactive)
UO-31
  GI50: 15.6 µM (inactive)

## O=c1oc2ccccc2n1CCCn1c(=O)oc2ccccc21
786-0
  GI50: > 100 µM (inactive)
A498
  GI50: > 100 µM (inactive)
ACHN
  GI50: 92.5 µM (inactive)
BT-549
  GI50: > 100 µM (inactive)
CAKI-1
  GI50: > 100 µM (inactive)
CCRF-CEM
  GI50: > 100 µM (inactive)
COLO 205
  GI50: > 100 µM (inactive)
DU-145
  GI50: > 100 µM (inactive)
EKVX
  GI50: > 100 µM (inactive)
HCT-116
  GI50: > 100 µM (inactive)
HCT-15
  GI50: > 100 µM
HL-60
  GI50: > 100 µM (inactive)
HOP-62
  GI50: > 100 µM (inactive)
HT-29
  GI50: > 100 µM (inactive)
Hs-578T
  GI50: > 100 µM (inactive)
IGROV-1
  GI50: > 100 µM (inactive)
K562
  GI50: > 100 µM (inactive)
KM12
  GI50: > 100 µM (inactive)
LOX IMVI
  GI50: > 100 µM (inactive)
M14
  GI50: > 100 µM (inactive)
MCF7
  GI50: > 100 µM (inactive)
MDA-MB-231
  GI50: > 100 µM (inactive)
MDA-MB-435
  GI50: > 100 µM (inactive)
MOLT-4
  GI50: > 100 µM (inactive)
Malme-3M
  GI50: > 100 µM (inactive)
NCI-H226
  GI50: > 100 µM (inactive)
NCI-H23
  GI50: > 100 µM (inactive)
NCI-H460
  GI50: > 100 µM (inactive)
NCI/ADR-RES
  GI50: > 100 µM (inactive)
OVCAR-3
  GI50: > 100 µM (inactive)
OVCAR-5
  GI50: > 100 µM (inactive)
OVCAR-8
  GI50: > 100 µM (inactive)
PC-3
  GI50: > 100 µM (inactive)
RPMI-8226
  GI50: > 100 µM (inactive)
RXF 393
  GI50: 82.8 µM (inactive)
SF-268
  GI50: > 100 µM (inactive)
SF-295
  GI50: > 100 µM (inactive)
SF-539
  GI50: > 100 µM (inactive)
SK-MEL-28
  GI50: > 100 µM (inactive)
SK-MEL-2
  GI50: > 100 µM (inactive)
SK-MEL-5
  GI50: > 100 µM (inactive)
SK-OV-3
  GI50: > 100 µM (inactive)
SN12C
  GI50: > 100 µM (inactive)
SNB-19
  GI50: > 100 µM (inactive)
SNB-75
  GI50: 44.5 µM (inactive)
SR
  GI50: > 100 µM (inactive)
SW-620
  GI50: > 100 µM (inactive)
TK-10
  GI50: > 100 µM (inactive)
U-251
  GI50: 47.9 µM (inactive)
UACC-257
  GI50: > 100 µM (inactive)
UACC-62
  GI50: > 100 µM (inactive)

## NC(N)=NC(P(=O)(O)O)P(=O)(O)O
786-0
  GI50: > 100 µM (inactive)
A549
  GI50: > 100 µM (inactive)
ACHN
  GI50: > 100 µM (inactive)
BT-549
  GI50: > 100 µM (inactive)
CAKI-1
  GI50: > 100 µM (inactive)
COLO 205
  GI50: > 100 µM (inactive)
DU-145
  GI50: > 100 µM (inactive)
EKVX
  GI50: > 100 µM (inactive)
HCC 2998
  GI50: > 100 µM (inactive)
HCT-116
  GI50: > 100 µM (inactive)
HCT-15
  GI50: > 100 µM
HOP-62
  GI50: > 100 µM (inactive)
Hs-578T
  GI50: 0.254 µM (active)
IGROV-1
  GI50: > 100 µM (inactive)
KM12
  GI50: > 100 µM (inactive)
LOX IMVI
  GI50: > 100 µM (inactive)
M14
  GI50: > 100 µM (inactive)
MCF7
  GI50: > 100 µM (inactive)
MDA-MB-231
  GI50: > 100 µM (inactive)
MDA-N
  GI50: > 100 µM (inactive)
Malme-3M
  GI50: > 100 µM (inactive)
NCI-H226
  GI50: > 100 µM (inactive)
NCI-H23
  GI50: > 100 µM (inactive)
NCI-H460
  GI50: > 100 µM (inactive)
NCI-H522
  GI50: > 100 µM (inactive)
NCI/ADR-RES
  GI50: > 100 µM (inactive)
OVCAR-3
  GI50: > 100 µM (inactive)
OVCAR-5
  GI50: > 100 µM (inactive)
PC-3
  GI50: > 100 µM (inactive)
RXF 393
  GI50: > 100 µM (inactive)
SF-268
  GI50: > 100 µM (inactive)
SF-295
  GI50: > 100 µM (inactive)
SF-539
  GI50: > 100 µM (inactive)
SK-MEL-5
  GI50: > 100 µM (inactive)
SK-OV-3
  GI50: > 100 µM (inactive)
SNB-19
  GI50: > 100 µM (inactive)
TK-10
  GI50: > 100 µM (inactive)
UACC-257
  GI50: > 100 µM (inactive)
UACC-62
  GI50: > 100 µM (inactive)
UO-31
  GI50: > 100 µM (inactive)
